Assay results taken from ChEMBL document CHEMBL1201861, “Genomics of Drug Sensitity in Cancer screening data, Wellcome Trust Sanger Institute”.

How the values were obtained:
Experiment in all cases: cells
Details in all cases: Homo sapiens
NCI-H2452 = format: functional, cell-based;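 note: growth inhibition of NCI-H2452 cells, read out with a cell viability assay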
Description: SANGER: Inhibition of human NCI-H2452 cell growth in a cell viability assay.

769-P = format: functional, cell-based
Description: SANGER: Inhibition of human 769-P cell growth in a cell viability assay.

FaDu = format: functional, cell-based;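 note: cell viability readout of growth inhibition in FaDu cells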
Description: SANGER: Inhibition of human FADU cell growth in a cell viability assay.

SW837 = format: functional, cell-based;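 note: growth inhibition of SW837 cells, determined with a cell viability assay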
Description: SANGER: Inhibition of human SW837 cell growth in a cell viability assay.

MDA-MB-415 = format: functional, cell-based
SW1088 = format: functional, cell-based;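 note: growth inhibition of human SW1088 cells, read out by a cell viability assay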
Description: SANGER: Inhibition of human SW1088 cell growth in a cell viability assay.

ABC-1 = format: functional, cell-based;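 note: growth inhibition of human ABC-1 cells, read out by a cell viability assay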
Description: SANGER: Inhibition of human ABC-1 cell growth in a cell viability assay.

HLE = format: functional, cell-based;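 note: growth inhibition of human HLE cells, read out by a cell viability assay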
Description: SANGER: Inhibition of human HLE cell growth in a cell viability assay.

LoVo = format: functional, cell-based;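 note: growth inhibition of human LoVo cells, read out with a cell viability assay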
Description: SANGER: Inhibition of human LoVo cell growth in a cell viability assay.

BXPC-3 = format: functional, cell-based;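 note: growth inhibition of human BxPC-3 cells, read out by a cell viability assay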
Description: SANGER: Inhibition of human BxPC-3 cell growth in a cell viability assay.

D-392MG = format: functional, cell-based
786-0 = format: functional, cell-based
Description: SANGER: Inhibition of human 786-0 cell growth in a cell viability assay.

CAPAN-1 = format: functional, cell-based;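 note: growth suppression of CAPAN-1 cells, read out by a cell viability assay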
Description: SANGER: Inhibition of human CAPAN-1 cell growth in a cell viability assay.

KOSC-2 = format: functional, cell-based;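 note: growth inhibition of KOSC-2 cells, read out by a cell viability assay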
Description: SANGER: Inhibition of human KOSC-2 cell growth in a cell viability assay.

5637 = format: functional, cell-based
Description: SANGER: Inhibition of human 5637 cell growth in a cell viability assay.

KYSE-520 cell line = format: functional, cell-based;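 note: growth inhibition of human KYSE-520 cells, read out with a viability assay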
Description: SANGER: Inhibition of human KYSE-520 cell growth in a cell viability assay.

LN-405 = format: functional, cell-based
Description: SANGER: Inhibition of human LN-405 cell growth in a cell viability assay.

SW1463 = format: functional, cell-based;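 note: growth inhibition of SW1463 cells, determined with a cell viability assay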
Description: SANGER: Inhibition of human SW1463 cell growth in a cell viability assay.

CAL-27 = format: functional, cell-based;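 note: Viability-based readout, IC50 reflecting inhibition of CAL-27 cell growth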
Description: SANGER: Inhibition of human CAL-27 cell growth in a cell viability assay.

A-427 = format: functional, cell-based;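 note: growth inhibition of human A-427 cells, read out by a cell viability assay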
Description: SANGER: Inhibition of human A427 cell growth in a cell viability assay.

NCI-H1792 = format: functional, cell-based;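 note: growth inhibition of human NCI-H1792 cells, read out as cell viability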
Description: SANGER: Inhibition of human NCI-H1792 cell growth in a cell viability assay.

SN12C = format: functional, cell-based;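 note: growth inhibition of human SN12C cells, measured by a cell viability assay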
Description: SANGER: Inhibition of human SN12C cell growth in a cell viability assay.

NCI-H1623 = format: functional, cell-based;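 note: cell viability assay used as the read-out for growth inhibition of NCI-H1623 cells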
Description: SANGER: Inhibition of human NCI-H1623 cell growth in a cell viability assay.

RT-112 = format: functional, cell-based
Description: SANGER: Inhibition of human RT-112 cell growth in a cell viability assay.

Daoy = format: functional, cell-based;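 note: daoy cell growth inhibition, read out as cell viability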
Description: SANGER: Inhibition of human Daoy cell growth in a cell viability assay.

NCI-H2087 = format: functional, cell-based;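 note: growth inhibition determined with a cell viability readout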
Description: SANGER: Inhibition of human NCI-H2087 cell growth in a cell viability assay.

UMC-11 = format: functional, cell-based;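 note: growth inhibition of UMC-11 cells, read out with a cell viability assay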
Description: SANGER: Inhibition of human UMC-11 cell growth in a cell viability assay.

PANC-03-27 = format: functional, cell-based
Description: SANGER: Inhibition of human PANC-03-27 cell growth in a cell viability assay.

639-V = format: functional, cell-based;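 note: growth inhibition of 639-V cells, read out with a cell viability assay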
Description: SANGER: Inhibition of human 639-V cell growth in a cell viability assay.

C-33-A = format: functional, cell-based;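 note: cell viability assay measuring growth inhibition of C-33-A cells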
Description: SANGER: Inhibition of human C-33-A cell growth in a cell viability assay.

HT1197 = format: functional, cell-based, HT-1197
Description: SANGER: Inhibition of human HT-1197 cell growth in a cell viability assay.

HCC1569 = format: functional, cell-based;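 note: growth inhibition of human HCC1569 cells, read out with a cell viability assay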
Description: SANGER: Inhibition of human HCC1569 cell growth in a cell viability assay.

SW13 = format: functional, cell-based;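 note: IC50 is inhibition of SW13 cell growth, read out with a cell viability assay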
Description: SANGER: Inhibition of human SW13 cell growth in a cell viability assay.

WM-115 = format: functional, cell-based
Description: SANGER: Inhibition of human WM-115 cell growth in a cell viability assay.

SW948 = format: functional, cell-based;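 note: growth inhibition of SW948 cells, read out with a cell viability assay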
Description: SANGER: Inhibition of human SW948 cell growth in a cell viability assay.

DMS-273 = format: functional, cell-based
Description: SANGER: Inhibition of human DMS-273 cell growth in a cell viability assay.

HGC-27 = format: functional, cell-based;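 note: growth inhibition of human HGC-27 cells, read out in a cell viability assay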
Description: SANGER: Inhibition of human HGC-27 cell growth in a cell viability assay.

SJRH30 = format: functional, cell-based;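 note: growth inhibition of human SJRH30 cells, read out with a cell viability assay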
Description: SANGER: Inhibition of human SJRH30 cell growth in a cell viability assay.

GAMG = format: functional, cell-based;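 note: cell growth inhibition measured by a viability assay in the GAMG human cell line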
Description: SANGER: Inhibition of human GAMG cell growth in a cell viability assay.

EFO-27 = format: functional, cell-based;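 note: growth inhibition of EFO-27 cells, read out with a cell viability assay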
Description: SANGER: Inhibition of human EFO-27 cell growth in a cell viability assay.

T84 = format: functional, cell-based;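 note: growth inhibition measured with a cell viability readout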
Description: SANGER: Inhibition of human T84 cell growth in a cell viability assay.

SK-N-AS = format: functional, cell-based;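 note: growth inhibition of human SK-N-AS cells, measured with a cell viability assay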
Description: SANGER: Inhibition of human SK-N-AS cell growth in a cell viability assay.

CaR-1 = format: functional, cell-based;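 note: growth inhibition of human CaR-1 cancer cells, read out with a cell viability assay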
Description: SANGER: Inhibition of human CaR-1 cell growth in a cell viability assay.

CAL-62 = format: functional, cell-based;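 note: growth inhibition of CAL-62 cells, read out with a cell viability assay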
Description: SANGER: Inhibition of human CAL-62 cell growth in a cell viability assay.

NCI-H1793 = format: functional, cell-based;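 note: cell growth inhibition, read out by a cell viability assay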
Description: SANGER: Inhibition of human NCI-H1793 cell growth in a cell viability assay.

8505C = format: functional, cell-based
Description: SANGER: Inhibition of human 8505C cell growth in a cell viability assay.

Kasumi 1 = format: functional, cell-based;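 note: growth inhibition of human Kasumi-1 cells, read out by a cell viability assay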
Description: SANGER: Inhibition of human KASUMI-1 cell growth in a cell viability assay.

Structure (SMILES): Cn1cc(/C=C2\C(=O)Nc3cccnc32)c2ccccc21
- IC50 (NCI-H2452): > 2000 nM
- IC50 (769-P): > 2000 nM
- IC50 (FaDu): > 2000 nM
- IC50 (SW837): > 2000 nM
- IC50 (MDA-MB-415): > 2000 nM
- IC50 (SW1088): > 2000 nM
- IC50 (ABC-1): > 2000 nM
- IC50 (HLE): > 2000 nM
- IC50 (LoVo): > 2000 nM
- IC50 (BXPC-3): > 2000 nM
- IC50 (D-392MG): > 2000 nM
- IC50 (786-0): > 2000 nM
- IC50 (CAPAN-1): > 2000 nM
- IC50 (KOSC-2): > 2000 nM
- IC50 5637: > 2000 nM
- IC50 (KYSE-520 cell line): > 2000 nM
- IC50 (LN-405): > 2000 nM
- IC50 (SW1463): > 2000 nM
- IC50 (CAL-27): > 2000 nM
- IC50 (A-427): > 2000 nM
- IC50 (NCI-H1792): > 2000 nM
- IC50 (SN12C): > 2000 nM
- IC50 (NCI-H1623): > 2000 nM
- IC50 (RT-112): > 2000 nM
- IC50 (Daoy): > 2000 nM
- IC50 (NCI-H2087): > 2000 nM
- IC50 (UMC-11): > 2000 nM
- IC50 (PANC-03-27): > 2000 nM
- IC50 (639-V): > 2000 nM
- IC50 (C-33-A): > 2000 nM
- IC50 (HT1197): > 2000 nM
- IC50 (HCC1569): > 2000 nM
- IC50 (SW13): > 2000 nM
- IC50 (WM-115): > 2000 nM
- IC50 (SW948): > 2000 nM
- IC50 (DMS-273): > 2000 nM
- IC50 (HGC-27): > 2000 nM
- IC50 (SJRH30): > 2000 nM
- IC50 (GAMG): > 2000 nM
- IC50 (EFO-27): > 2000 nM
- IC50 (T84): > 2000 nM
- IC50 (SK-N-AS): > 2000 nM
- IC50 (CaR-1): > 2000 nM
- IC50 (CAL-62): > 2000 nM
- IC50 (NCI-H1793): > 2000 nM
- IC50 (8505C): > 2000 nM
- IC50 (Kasumi 1): > 2000 nM

Structure (SMILES): O=c1cc(N2CCOCC2)oc2c(-c3cccc4c3sc3ccccc34)cccc12
- IC50 (NCI-H2452): > 2000 nM
- IC50 (769-P): > 2000 nM
- IC50 (FaDu): > 2000 nM
- IC50 (SW837): > 2000 nM
- IC50 (MDA-MB-415): > 2000 nM
- IC50 (SW1088): > 2000 nM
- IC50 (ABC-1): > 2000 nM
- IC50 (HLE): > 2000 nM
- IC50 (LoVo): 867 nM
- IC50 (BXPC-3): > 2000 nM
- IC50 (D-392MG): > 2000 nM
- IC50 (786-0): > 2000 nM
- IC50 (CAPAN-1): > 2000 nM
- IC50 (KOSC-2): > 2000 nM
- IC50 5637: > 2000 nM
- IC50 (KYSE-520 cell line): > 2000 nM
- IC50 (LN-405): > 2000 nM
- IC50 (SW1463): > 2000 nM
- IC50 (CAL-27): > 2000 nM
- IC50 (A-427): > 2000 nM
- IC50 (NCI-H1792): > 2000 nM
- IC50 (SN12C): > 2000 nM
- IC50 (NCI-H1623): > 2000 nM
- IC50 (RT-112): > 2000 nM
- IC50 (Daoy): > 2000 nM
- IC50 (NCI-H2087): > 2000 nM
- IC50 (UMC-11): > 2000 nM
- IC50 (PANC-03-27): > 2000 nM
- IC50 (639-V): 1440 nM
- IC50 (C-33-A): > 2000 nM
- IC50 (HT1197): > 2000 nM
- IC50 (HCC1569): > 2000 nM
- IC50 (SW13): > 2000 nM
- IC50 (WM-115): > 2000 nM
- IC50 (SW948): > 2000 nM
- IC50 (DMS-273): > 2000 nM
- IC50 (HGC-27): > 2000 nM
- IC50 (SJRH30): > 2000 nM
- IC50 (GAMG): > 2000 nM
- IC50 (EFO-27): > 2000 nM
- IC50 (T84): > 2000 nM
- IC50 (SK-N-AS): 622 nM
- IC50 (CaR-1): > 2000 nM
- IC50 (CAL-62): > 2000 nM
- IC50 (NCI-H1793): 1460 nM
- IC50 (8505C): > 2000 nM

Structure (SMILES): Cn1c(=O)n(-c2ccc(C(C)(C)C#N)cc2)c2c3cc(-c4cnc5ccccc5c4)ccc3ncc21 [DACTOLISIB]
- IC50 (NCI-H2452): 44.6 nM
- IC50 (769-P): 10.4 nM
- IC50 (FaDu): 267 nM
- IC50 (SW837): 1330 nM
- IC50 (MDA-MB-415): 177 nM
- IC50 (SW1088): 28.3 nM
- IC50 (ABC-1): 420 nM
- IC50 (HLE): 53.5 nM
- IC50 (LoVo): 48.4 nM
- IC50 (BXPC-3): 81.5 nM
- IC50 (D-392MG): 108 nM
- IC50 (786-0): 22.3 nM
- IC50 (CAPAN-1): > 2000 nM
- IC50 (KOSC-2): 70 nM
- IC50 5637: 79.2 nM
- IC50 (KYSE-520 cell line): 253 nM
- IC50 (LN-405): 63.9 nM
- IC50 (SW1463): 739 nM
- IC50 (CAL-27): 217 nM
- IC50 (A-427): 183 nM
- IC50 (NCI-H1792): 66.2 nM
- IC50 (SN12C): 90.6 nM
- IC50 (NCI-H1623): 47.8 nM
- IC50 (RT-112): 19.7 nM
- IC50 (Daoy): 36.7 nM
- IC50 (NCI-H2087): 235 nM
- IC50 (UMC-11): 458 nM
- IC50 (PANC-03-27): 76.3 nM
- IC50 (639-V): 85.4 nM
- IC50 (C-33-A): 136 nM
- IC50 (HT1197): 238 nM
- IC50 (HCC1569): 276 nM
- IC50 (SW13): 66.5 nM
- IC50 (WM-115): 68.1 nM
- IC50 (SW948): > 2000 nM
- IC50 (DMS-273): 60.9 nM
- IC50 (HGC-27): 18.1 nM
- IC50 (SJRH30): 144 nM
- IC50 (GAMG): 19.5 nM
- IC50 (EFO-27): 24.3 nM
- IC50 (T84): > 2000 nM
- IC50 (SK-N-AS): 137 nM
- IC50 (CaR-1): 68.2 nM
- IC50 (CAL-62): 36.9 nM
- IC50 (NCI-H1793): 12.8 nM
- IC50 (8505C): 37.5 nM
